Results reported in ChEMBL document CHEMBL5505979, “Novel aminothiazoximone-corbelled ethoxycarbonylpyrimidones with antibiofilm activity to conquer Gram-negative bacteria through potential multitargeting effects” (Eur J Med Chem, 2024).

What was measured:
Assay type in all cases: functional
Candida albicans [1] = test: Anti-fungal activity against Candida albicans assessed as inhibition of fungal growth; details: Candida albicans; read-out: MIC
Staphylococcus aureus [2] = test: Anti-bacterial activity against Staphylococcus aureus ATCC 6538 assessed as inhibition of bacterial growth
Candida parapsilosis = test: Anti-fungal activity against Candida parapsilosis assessed as inhibition of fungal growth; details: Lodderomyces parapsilosis; read-out: MIC
Pseudomonas aeruginosa [3] = test: Anti-bacterial activity against Pseudomonas aeruginosa ST235 assessed as inhibition of bacterial growth; details: Pseudomonas aeruginosa, ST235; read-out: MIC
Staphylococcus aureus [4] = test: Anti-bacterial activity against methicillin-resistant Staphylococcus aureus ATCC 43300 assessed as inhibition of bacterial growth; details: Staphylococcus aureus, ATCC 43300; read-out: MIC
Enterococcus faecalis = test: Anti-bacterial activity against Enterococcus faecalis V583 assessed as inhibition of bacterial growth
Staphylococcus aureus [5] = test: Anti-bacterial activity against Staphylococcus aureus ATCC 25923 assessed as inhibition of bacterial growth; details: Staphylococcus aureus, ATCC 25923; read-out: MIC
Candida albicans [6] = test: Anti-fungal activity against Candida albicans 90023 assessed as inhibition of fungal growth
Staphylococcus aureus [7] = test: Anti-bacterial activity against methicillin-resistant Staphylococcus aureus N315 assessed as inhibition of bacterial growth; details: Staphylococcus aureus, N315; read-out: MIC
Staphylococcus aureus [8] = test: Anti-bacterial activity against Staphylococcus aureus CMCC (B) 26003 assessed as inhibition of bacterial growth
Pseudomonas aeruginosa [9] = test: Anti-bacterial activity against Pseudomonas aeruginosa ATCC 9027 assessed as inhibition of bacterial growth
Pseudomonas aeruginosa [10] = test: Anti-bacterial activity against Pseudomonas aeruginosa ATCC 27853 assessed as inhibition of bacterial growth; details: Pseudomonas aeruginosa, ATCC 27853; read-out: MIC
Pseudomonas aeruginosa [11] = test: Anti-bacterial activity against Pseudomonas aeruginosa CMCC (B) 10104 assessed as inhibition of bacterial growth; details: Pseudomonas aeruginosa, CMCC (B) 10104; read-out: MIC
Candida tropicalis = test: Anti-fungal activity against Candida tropicalis assessed as inhibition of fungal growth; details: Candida tropicalis; read-out: MIC
Staphylococcus aureus [12] = test: Anti-bacterial activity against Staphylococcus aureus ATCC 29213 assessed as inhibition of bacterial growth; details: Staphylococcus aureus, ATCC 29213; read-out: MIC
Escherichia coli [13] = test: Anti-bacterial activity against Escherichia coli ATCC 25922 assessed as inhibition of bacterial growth
Klebsiella pneumoniae = test: Anti-bacterial activity against Klebsiella pneumoniae KPN325 assessed as inhibition of bacterial growth; details: Klebsiella pneumoniae, KPN325; read-out: MIC
Escherichia coli [14] = test: Anti-bacterial activity against Escherichia coli JM109 assessed as inhibition of bacterial growth
Pseudomonas aeruginosa [15] = test: Anti-bacterial activity against Pseudomonas aeruginosa ATCC 15442 assessed as inhibition of bacterial growth; details: Pseudomonas aeruginosa, ATCC 15442; read-out: MIC
Acinetobacter baumannii = test: Anti-bacterial activity against Acinetobacter baumannii R674 assessed as inhibition of bacterial growth
Staphylococcus aureus [16] = test: Anti-bacterial activity against Staphylococcus aureus ATCC 12600 assessed as inhibition of bacterial growth; details: Staphylococcus aureus, ATCC 12600; read-out: MIC
Staphylococcus aureus [17] = test: Anti-bacterial activity against Staphylococcus aureus CMCC (B) 26001 assessed as inhibition of bacterial growth
Staphylococcus aureus [18] = test: Anti-bacterial activity against Staphylococcus aureus ATCC 1708 assessed as inhibition of bacterial growth; details: Staphylococcus aureus, ATCC 1708; read-out: MIC

Measured: MIC

CCOC(=O)C1=C(CN2CCN(C(=O)/C(=N/OC)c3csc(N)n3)CC2)NC(=O)NC1c1nccs1 (configuration not stated)
60 µM: Candida albicans [6] | Pseudomonas aeruginosa [9] | Candida tropicalis | Escherichia coli [13] | Staphylococcus aureus [17]
479 µM: Candida albicans [1] | Candida parapsilosis | Staphylococcus aureus [12] | Acinetobacter baumannii
15 µM: Pseudomonas aeruginosa [10]
120 µM: Staphylococcus aureus [2] | Staphylococcus aureus [4] | Pseudomonas aeruginosa [15] | Staphylococcus aureus [16]
30 µM: Pseudomonas aeruginosa [3]
240 µM: all other assays above

CCCCc1nc(Cl)c(C2NC(=O)NC(CN3CCN(CC(=O)c4ccccc4)CC3)=C2C(=O)OCC)[nH]1 (configuration not stated)
59 µM: Staphylococcus aureus [4] | Staphylococcus aureus [5] | Staphylococcus aureus [12] | Escherichia coli [13] | Staphylococcus aureus [17]
472 µM: Candida albicans [1] | Candida parapsilosis | Staphylococcus aureus [8] | Candida tropicalis | Staphylococcus aureus [18]
236 µM: Staphylococcus aureus [2] | Enterococcus faecalis | Staphylococcus aureus [7] | Klebsiella pneumoniae | Staphylococcus aureus [16]
15 µM: Candida albicans [6]
118 µM: all other assays above

CCCCc1nc(Cl)c(C2NC(=O)NC(CN3CCN(CC(=O)c4ccc(C)cc4)CC3)=C2C(=O)OCC)[nH]1 (configuration not stated)
115 µM: Staphylococcus aureus [4] | Escherichia coli [13] | Acinetobacter baumannii
460 µM: Candida albicans [1] | Candida parapsilosis | Staphylococcus aureus [8] | Candida tropicalis | Pseudomonas aeruginosa [15] | Staphylococcus aureus [18]
29 µM: Pseudomonas aeruginosa [9] | Escherichia coli [14]
58 µM: Pseudomonas aeruginosa [3] | Enterococcus faecalis | Staphylococcus aureus [5] | Staphylococcus aureus [12] | Staphylococcus aureus [17]
230 µM: all other assays above

CCCCc1nc(Cl)c(C2NC(=O)NC(CN3CCN(CC(=O)c4ccc(F)cc4)CC3)=C2C(=O)OCC)[nH]1 (configuration not stated)
457 µM: Candida albicans [1] | Candida parapsilosis | Candida tropicalis
29 µM: Candida albicans [6]
57 µM: Pseudomonas aeruginosa [3] | Enterococcus faecalis | Staphylococcus aureus [5] | Pseudomonas aeruginosa [10] | Staphylococcus aureus [12] | Staphylococcus aureus [16] | Staphylococcus aureus [17]
229 µM: Staphylococcus aureus [2] | Staphylococcus aureus [7] | Klebsiella pneumoniae
114 µM: all other assays above
